Data from patent publication US7445921B2, “Transglycosylation method and protein having transglycosylation activity” (priority 2004, dated 2008).
No end group written: not given here.

How the values were obtained:
[1] = system: recombinant endo-α-GalNAc-ase; settings: substance as sugar source 1.2 mM, TLC
Method: The reaction system for measurement of transglycosylation activity was carried out by using the sugar chain donor Galβ1-3GalNAcα1-pNP at a final concentration of 2 mM, the acceptor 1-alkanol at a final concentration of 15% (v/v) and the purified enzyme (recombinant endo-α-GalNAc-ase) at a final concentration of 6.8 units/L in a 50 mM potassium phosphate buffer, pH 7.0.

[2] = system: recombinant endo-α-GalNAc-ase; experiment: Transglycosylation into polypeptide (HPLC, MALDI-TOF-MS); format: biochemical, Bifidobacterium longum JCM1217; settings: donor Galβ1-3GalNAcα1-pNP, sodium phosphate buffer pH 6, 37° C., one hour, HPLC product peak
Method: First, an enzymatic reaction of recombinant endo-α-GalNAc-ase purified in (7) was performed with Galβ1-3GalNAcα1-pNP as the sugar chain donor and peptide-T (see SEQ ID: 16), PAMP-12 (an amino acid sequence shown in SEQ ID: 17 with an amino group attached at C-end of the sequence) and bradykinin (see SEQ ID: 18) as the sugar chain acceptor.
That is, 10 μl of Galβ1-3GalNAcα1-pNP, 6 μl solution of each polypeptide as the acceptor and 1.5 μl of NaP (sodium phosphate) buffer (500 mM, pH 6) were mixed. The sugar chain donor, Galβ1-3GalNAcα1-pNP was used at a concentration of 10 mM, and for the peptide solution, each of 50 mM peptide-T, 50 mM bradykinin, and 10 mM PAMP-12 was used. A solution obtained by mixing was warmed up to 37° C., subsequently 2.5 μl of endo-α-GalNAc-ase (1.55 unit/ml) was added thereto, which was then incubated in a water bath at 37° C. for one hour. Subsequently, the enzyme was inactivated by boiling for 3 to 5 minutes.
Each reaction solution obtained in the aforementioned enzymatic reaction was applied to an HPLC analysis, and reaction products were analyzed and fractionated. […] UV (wavelength 214 nm) spectra were detected.
Detected results of each reaction solution for peptide-T, PAMP-12 and bradykinin are shown in FIGS. 5A, 5B and 5C, respectively.
The fractions fractionated by the aforementioned HPLC were analyzed by MALDI-TOF-MS. […]
Target sequence in this assay (as listed by the source): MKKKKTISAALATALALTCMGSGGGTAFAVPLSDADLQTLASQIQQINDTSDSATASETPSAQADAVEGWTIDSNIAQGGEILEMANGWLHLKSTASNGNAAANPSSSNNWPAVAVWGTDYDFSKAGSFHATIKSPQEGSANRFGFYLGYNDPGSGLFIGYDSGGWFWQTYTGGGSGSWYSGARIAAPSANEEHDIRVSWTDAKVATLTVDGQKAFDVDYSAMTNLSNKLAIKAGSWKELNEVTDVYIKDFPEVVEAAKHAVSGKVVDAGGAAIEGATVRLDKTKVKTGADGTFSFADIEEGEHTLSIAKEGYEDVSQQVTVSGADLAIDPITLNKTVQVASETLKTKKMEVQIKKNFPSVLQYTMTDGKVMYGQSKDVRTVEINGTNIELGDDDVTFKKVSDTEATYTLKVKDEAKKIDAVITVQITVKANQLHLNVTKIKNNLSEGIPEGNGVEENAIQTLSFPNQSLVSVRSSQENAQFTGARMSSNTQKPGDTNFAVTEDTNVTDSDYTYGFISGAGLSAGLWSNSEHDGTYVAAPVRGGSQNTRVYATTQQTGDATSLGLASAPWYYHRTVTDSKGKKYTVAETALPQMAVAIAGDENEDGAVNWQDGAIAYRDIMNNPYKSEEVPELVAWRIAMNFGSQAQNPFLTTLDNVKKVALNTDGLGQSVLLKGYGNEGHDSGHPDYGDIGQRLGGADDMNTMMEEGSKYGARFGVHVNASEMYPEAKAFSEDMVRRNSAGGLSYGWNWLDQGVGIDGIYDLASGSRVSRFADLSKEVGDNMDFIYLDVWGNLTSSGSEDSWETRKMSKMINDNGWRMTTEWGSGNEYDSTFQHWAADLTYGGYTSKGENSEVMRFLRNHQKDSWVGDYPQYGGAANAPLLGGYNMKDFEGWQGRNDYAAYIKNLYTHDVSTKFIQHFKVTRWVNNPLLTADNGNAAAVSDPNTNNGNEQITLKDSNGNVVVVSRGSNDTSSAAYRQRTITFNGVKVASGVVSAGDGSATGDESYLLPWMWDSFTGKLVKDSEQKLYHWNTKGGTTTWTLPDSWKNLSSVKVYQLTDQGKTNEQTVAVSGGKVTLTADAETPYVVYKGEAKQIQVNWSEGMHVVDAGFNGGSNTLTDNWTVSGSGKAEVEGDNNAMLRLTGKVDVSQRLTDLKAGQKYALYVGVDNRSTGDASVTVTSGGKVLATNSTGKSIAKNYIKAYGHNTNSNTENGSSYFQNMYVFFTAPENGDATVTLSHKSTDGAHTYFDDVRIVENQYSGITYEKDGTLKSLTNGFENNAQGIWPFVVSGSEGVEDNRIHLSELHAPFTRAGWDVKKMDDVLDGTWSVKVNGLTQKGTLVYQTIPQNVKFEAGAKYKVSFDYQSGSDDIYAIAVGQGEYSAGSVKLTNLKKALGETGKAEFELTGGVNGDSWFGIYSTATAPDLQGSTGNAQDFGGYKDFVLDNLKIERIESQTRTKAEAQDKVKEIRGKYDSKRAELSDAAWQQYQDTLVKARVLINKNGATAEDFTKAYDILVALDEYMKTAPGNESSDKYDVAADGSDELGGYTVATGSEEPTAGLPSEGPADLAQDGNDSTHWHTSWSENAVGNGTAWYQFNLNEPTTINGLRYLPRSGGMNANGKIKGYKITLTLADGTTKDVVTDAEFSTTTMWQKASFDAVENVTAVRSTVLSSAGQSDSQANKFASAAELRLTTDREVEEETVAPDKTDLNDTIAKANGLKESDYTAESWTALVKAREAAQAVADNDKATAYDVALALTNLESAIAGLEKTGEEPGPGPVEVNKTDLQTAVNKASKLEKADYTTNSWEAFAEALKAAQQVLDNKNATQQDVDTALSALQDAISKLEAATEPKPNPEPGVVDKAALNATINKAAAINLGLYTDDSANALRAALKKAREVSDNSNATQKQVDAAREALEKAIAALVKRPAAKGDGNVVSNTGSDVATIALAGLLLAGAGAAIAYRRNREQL

## CC(=O)N[C@H]1C(O)O[C@H](CO)[C@H](O)[C@@H]1O[C@@H]1O[C@H](CO)[C@H](O)[C@H](O)[C@H]1O (stereo partly drawn) [Galβ1-3GalNAc, galactosyl β1→3N-acetylgalactosamine]
[1]
  Formation of product spot in reaction with methanol as acceptor (transglycosylation vs reverse hydrolysis): not formed

## CC(=O)N[C@H]1[C@@H](Oc2ccc([N+](=O)[O-])cc2)O[C@H](CO)[C@H](O)[C@@H]1O[C@@H]1O[C@H](CO)[C@H](O)[C@H](O)[C@H]1O [Galβ1-3GalNAcα1-pNP, galactosyl β1→3N-acetylgalactosaminyl α1-p-nitrophenol, reference compound]
[1]
  Formation of product spot in reaction with methanol as acceptor (transglycosylation vs reverse hydrolysis): formed

## PAMP-12: amino acid sequence shown in SEQ ID: 17 with an amino group attached at C-end; sugar chain acceptor (FRKKWNKWALSR-NH2; listed as Homo sapiens)
[2]
  Transfer of disaccharide (Gal-GalNAc) to the peptide acceptor: disaccharide (Gal-GalNAc) had been transferred
